Here are results for twelve molecules from patent US7189702B2, “Glucopyranosyloxypyrazole derivatives and medicinal use thereof” (Kissei Pharmaceutical Co., Ltd., priority 2001, dated 2007).

By IC50 is commonly meant the concentration needed to halve the response being measured. The low end stands for greater potency in that assay, the high end for weaker potency in that assay.

Molecules are shown by their SMILES.

One assay addresses T1, human SGLT2 (Homo sapiens, UniProt P31639, I433V).
T1 construct: expressed in transfected cells; host or cells: COS-7 cells (RIKEN CELL BANK RCB0539), transient, electroporation of KL29
T1 sequence (P31639 1-672 I433V): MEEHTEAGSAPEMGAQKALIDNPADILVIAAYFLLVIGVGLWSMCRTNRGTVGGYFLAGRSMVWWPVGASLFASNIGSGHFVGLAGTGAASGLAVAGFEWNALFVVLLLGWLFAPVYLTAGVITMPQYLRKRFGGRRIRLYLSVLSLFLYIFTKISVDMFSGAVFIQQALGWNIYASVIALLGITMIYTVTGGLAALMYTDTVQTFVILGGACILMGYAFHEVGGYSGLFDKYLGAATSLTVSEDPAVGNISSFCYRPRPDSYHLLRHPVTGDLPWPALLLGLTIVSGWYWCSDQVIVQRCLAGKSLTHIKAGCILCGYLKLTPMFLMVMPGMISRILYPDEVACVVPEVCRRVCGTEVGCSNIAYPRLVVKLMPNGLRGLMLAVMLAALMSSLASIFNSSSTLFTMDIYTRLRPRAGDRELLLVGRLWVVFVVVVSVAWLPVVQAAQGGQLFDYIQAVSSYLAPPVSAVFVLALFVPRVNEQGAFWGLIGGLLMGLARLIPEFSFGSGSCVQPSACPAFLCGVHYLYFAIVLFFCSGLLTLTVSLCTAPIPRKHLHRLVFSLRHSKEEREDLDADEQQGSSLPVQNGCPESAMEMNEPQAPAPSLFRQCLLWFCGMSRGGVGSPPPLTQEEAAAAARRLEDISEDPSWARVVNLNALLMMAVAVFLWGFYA
Description: Assay for inhibitory effect on human SGLT2 activity (uptake of methyl-α-D-glucopyranoside). The note with it: inhibition of methyl-α-D-(U-14C)glucopyranoside uptake, COS-7 cells expressing transiently human SGLT2, 37° C., 2 hours. It is filed as cell-based. How it is done: Assay for Inhibitory Effect on Human SGLT2 Activity
1) Construction of the Plasmid Vector Expressing Human SGLT2
Preparation of the cDNA library for PCR amplification was performed by reverse transcription of a total RNA deprived from human kidney (Ori gene) with oligo dT as the primer, using SUPERSCRIPT Preamplification System (Gibco-BRL: LIFE TECHNOLOGIES). The DNA fragment coding for human SGLT2 was amplified by the PCR reaction, in which the human kidney cDNA library described above was used as the template and the following oligo nucleotides 0702F and 0712R, presented as Sequence Numbers 1 and 2 respectively, were used as the primers. The amplified DNA fragment was ligated into pCR-Blunt (Invitrogen), a vector for cloning, according to standard method of the kit. The Escherichia coli HB101 was transformed according to usual method and then selection of the transformants was performed on the LB agar medium containing 50 μg/mL of kanamycin. After plasmid DNA was extracted and purified from the one of the transformants, amplifying of the DNA fragment coding for human SGLT2 was performed by the PCR reaction, in which the following oligo nucleotides 0714F and 0715R, presented as Sequence Numbers 3 and 4 respectively, were used as the primers. The amplified DNA fragment was digested with restriction enzymes, Xho I and Hind III, and then purified with Wizard Purification System (Promega). This purified DNA fragment was inserted at the corresponding restriction sites of pcDNA3.1 (−) Myc/His-B (Invitrogen), a vector for expressing of fusion protein. The Escherichia coli HB101 was transformed according to usual method and then selection of the transformant was performed on the LB agar medium containing 100 μg/mL of ampicillin. After plasmid DNA was extracted and purified from this transformant, the base sequence of the DNA fragment inserted at the multi-cloning sites of the vector pcDNA3.1 (−) Myc/His-B was analyzed. […] Sequentially, a clone in which valine is substituted for isoleucine-433 was obtained. This plasmid vector expressing human SGLT2 in which the peptide presented as Sequence Number 5 is fused to the carboxyl terminal alanine residue was designated KL29.
2) Preparation of the Cells Expressing Transiently Human SGLT2
KL29, the plasmid coding human SGLT2, was transfected into COS-7 cells (RIKEN CELL BANK RCB0539) by electroporation. Electroporation was performed with GENE PULSER II (Bio-Rad Laboratories) under the condition: 0.290 kV, 975 μF, 2×10^6 cells of COS-7 cell and 20 μg of KL29 in 500 μL of OPTI-MEM I medium (Gibco-BRL: LIFE TECHNOLOGIES) in the 0.4 cm type cuvette. After the gene transfer, the cells were harvested by centrifugation and resuspended with OPTI-MEM I medium (1 mL/cuvette). To each well in 96-wells plate, 125 μL of this cell suspension was added. After overnight culture at 37° C. under 5% CO2, 125 μL of DMEM medium which is containing 10% of fetal bovine serum (Sanko Jyunyaku), 100 units/mL sodium penicillin G (Gibco-BRL: LIFE TECHNOLOGIES), and 100 μg/mL streptomycin sulfate (Gibco-BRL: LIFE TECHNOLOGIES) was added to each well. These cells were cultured until the next day and then they were used for the measurement of the inhibitory activity against the uptake of methyl-α-D-glucopyranoside.
3) Measurement of the Inhibitory Activity Against the Uptake of methyl-α-D-glucopyranoside
After a test compound was dissolved in dimethyl sulfoxide and diluted with the uptake buffer (a pH 7.4 buffer containing 140 mM sodium chloride, 2 mM potassium chloride, 1 mM calcium chloride, 1 mM magnesium chloride, 5 mM methyl-α-D-glucopyranoside, 10 mM 2-[4-(2-hydroxyethyl)-1-piperazinyl]ethane sulfonic acid and 5 mM tris(hydroxymethyl)aminomethane), each diluent was used as test sample for measurement of the inhibitory activity. […]
As to `OCCCc1ccc(Cc2c(O[C@@H]3O[C@H](CO)[C@@H](O)[C@H](O)[C@H]3O)n[nH]c2C(F)(F)F)cc1` [Example 24, 3-(β-D-Glucopyranosyloxy)-4-{[4-(3-hydroxypropyl)phenyl]methyl}-5-trifluoromethyl-1H-pyrazole], the IC50 was 57 nM.
For the molecule `CCc1ccc(Cc2c(O[C@@H]3O[C@H](CO)[C@@H](O)[C@H](O)[C@H]3O)nn(CCCO)c2C)cc1` [Example 39, 4-[(4-Ethylphenyl)methyl]-3-(β-D-glucopyranosyloxy)-1-(3-hydroxypropyl)-5-methyl-1H-pyrazole], the IC50 was 47 nM.
For `CSc1ccc(Cc2c(C(F)(F)F)[nH][nH]c2=O)cc1` [WAY-123783, reference compound], the IC50 was more than 100000 nM.
With `Cc1[nH]nc(O[C@@H]2O[C@H](CO)[C@@H](O)[C@H](O)[C@H]2O)c1Cc1ccc(-c2ccc(F)cc2)cc1` [Example 26, 4-{[4-(4-Fluorophenyl)phenyl]methyl}-3-(β-D-glucopyranosyloxy)-5-methyl-1H-pyrazole], the IC50 stood at 150 nM.
Still for that read-out and setting: with `Cc1c(Cc2ccc(C3CC3)cc2)c(O[C@@H]2O[C@H](CO)[C@@H](O)[C@H](O)[C@H]2O)nn1CC1CC1` [Example 32, 3-(β-D-Glucopyranosyloxy)-5-methyl-1-(cyclopropylmethyl)-4-[(4-cyclopropylphenyl)methyl]-1H-pyrazole] the figure was 26 nM; with `CC(C)=Cc1ccc(Cc2c(O[C@@H]3O[C@H](CO)[C@@H](O)[C@H](O)[C@H]3O)n[nH]c2C)cc1` [Example 25, 3-(β-D-Glucopyranosyloxy)-5-methyl-4-{[4-(2-methylprop-1-en-1-yl)phenyl]methyl}-1H-pyrazole], 65 nM.
On to `Cc1[nH]nc(O[C@@H]2O[C@H](CO)[C@@H](O)[C@H](O)[C@H]2O)c1Cc1ccc(C=C2CC2)cc1` [Example 20, 3-(β-D-Glucopyranosyloxy)-5-methyl-4-{[4-(cyclopropylidenemethyl)phenyl]methyl}-1H-pyrazole], for which the IC50 was found to be 15 nM.
In the case of `CC/C=C/c1ccc(Cc2c(O[C@@H]3O[C@H](CO)[C@@H](O)[C@H](O)[C@H]3O)n[nH]c2C)cc1` [Example 22, (E)-4-{[4-(But-1-en-1-yl)phenyl]methyl}-3-(β-D-glucopyranosyloxy)-5-methyl-1H-pyrazole], the IC50 stood at 41 nM.
For `Cc1[nH]nc(O[C@@H]2O[C@H](CO)[C@@H](O)[C@H](O)[C@H]2O)c1Cc1ccc(C2CC2)cc1` [Example 21, 3-(β-D-Glucopyranosyloxy)-5-methyl-4-[(4-cyclopropylphenyl)methyl]-1H-pyrazole], the IC50 is 18 nM.
`Cc1[nH]nc(O[C@@H]2O[C@H](CO)[C@@H](O)[C@H](O)[C@H]2O)c1Cc1ccc(OC2CCC2)cc1` [Example 27, 4-{[4-(Cyclobutyloxy)phenyl]methyl}-3-(β-D-glucopyranosyloxy)-5-methyl-1H-pyrazole]: the IC50 is 210 nM.
`CSc1ccc(Cc2c(O[C@@H]3O[C@H](CO)[C@@H](O)[C@H](O)[C@H]3O)nn(CC3CC3)c2C)cc1` [Example 38, 1-(Cyclopropylmethyl)-3-(β-D-glucopyranosyloxy)-5-methyl-4-[(4-methylthiophenyl)methyl]-1H-pyrazole]: the IC50 is 45 nM.
On to `Cc1[nH]nc(O[C@@H]2O[C@H](CO)[C@@H](O)[C@H](O)[C@H]2O)c1Cc1ccc(-c2nccs2)cc1` [Example 23, 3-(β-D-Glucopyranosyloxy)-5-methyl-4-{[4-(thiazol-2-yl)phenyl]methyl}-1H-pyrazole], for which the IC50 came out at 46 nM.

The same assay, now with this note: statement in words.
In the case of `CSc1ccc(Cc2c(C(F)(F)F)[nH][nH]c2=O)cc1` [WAY-123783, reference compound], the “inhibitory activity in human SGLT2” value is “extremely weak”.

Test system in the next assay: not given
Assay: not given
Conditions: normal mice; J. Med. Chem., Vol. 39, pp. 3920–3928 (1996); cited from earlier work.
As to `CSc1ccc(Cc2c(C(F)(F)F)[nH][nH]c2=O)cc1` [WAY-123783, reference compound], the “amount of excreted glucose” value is reported as “increased”.
